# Test results as given in patent US20230277613A1, “Polysaccharide-Rich Bombax Costatum Flower Extract” (priority 2020, published 2023).
# Marks after values point to notes of the source that are not given here.
# Columns and labels:
# hBD2 [1] = assay: Intracellular hBD2 production in keratinocytes (ELISA); assay type: cell-based, human; details: IL1β 100 ng/ml
# Procedure: (§1) Normal human epidermal keratinocytes were treated for 24 or 48 hours with BCP extract or IL1β at 100 ng/ml (positive reference). Moreover, the quantities of TLR2 and intracellular hBD2 were measured by ELISA.
# hBD2 [2] = assay: hBD2 gene expression in keratinocytes (real-time quantitative RT-PCR); assay type: cell-based, human; details: IL1β 100 ng/ml
# Procedure: (§2) Normal human epidermal keratinocytes were treated for 24 or 48 hours with BCP extract or IL1β at 100 ng/ml (positive reference). At the end of the treatment, the gene expression of hBD2, hBD3 and TLR2 was analyzed by real-time quantitative RT-PCR.
# hBD3 = hBD3 gene expression in keratinocytes (real-time quantitative RT-PCR); assay type: cell-based, human; details: IL1β 100 ng/ml
# Procedure: as §2
# TLR2 [3] = assay: TLR2 gene expression in keratinocytes (real-time quantitative RT-PCR); assay type: cell-based, human; details: IL1β 100 ng/ml
# Procedure: as §2
# TLR2 [4] = assay: TLR2 production in keratinocytes (ELISA); assay type: cell-based, human; details: IL1β 100 ng/ml
# Procedure: as §1
# IL1α (interleukin 1α) = assay: IL1-alpha produced by NHKs under PMA stress (ELISA); assay type: cell-based, human
# Procedure: (§3) Normal Human Keratinocytes (NHK) were treated for 24 hours at 37° C. with the Bombax costatum Polysaccharide extract according to Example 1 (called BCP extract) at 0.01% and/or 0.05% of dry matter (DM) or by Dexamethasone or Indomethacin at 10^-7M (anti-inflammatory reference molecules). The cells were then treated by adding PMA at 10 μg/ml (Phorbol Myristate Acetate, inflammation-inducing agent) for 16 hours at 37° C. At the end of the treatment, the quantities of IL1α (interleukin 1α), PGE2 (Prostaglandin-E2), IL1β (Interleukin 1β), TNFα (Tumor Necrosis Factor α), IL6 (Interleukin 6) and IL8 (Interleukin 8) secreted were measured by the ELISA technique in the culture supernatants.
# (§4) The significance of the results was assessed by a one-way analysis of variance followed by a Tuckey test.
# IL1β (Interleukin 1β) = assay: IL1-beta produced by NHKs under PMA stress (ELISA); assay type: cell-based, human
# Procedure: as §3, §4
# [5] = tested on: TNFα (Tumor Necrosis Factor α); assay: TNF-alpha produced by NHKs under PMA stress (ELISA); assay type: cell-based, human
# Procedure: as §3, §4
# IL6 (Interleukin 6) = assay: IL6 produced by NHKs under PMA stress (ELISA); assay type: cell-based, human
# Procedure: as §3, §4
# PGE2 (Prostaglandin-E2) = assay: PGE2 produced by NHKs under PMA stress (ELISA); assay type: cell-based, human
# Procedure: as §3, §4
# IL8 (Interleukin 8) = assay: IL8 produced by NHKs under PMA stress (ELISA); assay type: cell-based, human
# Procedure: as §3, §4
# [6] = tested on: Corynebacterium striatum (ATCC 6940); assay: In vitro sniff test and viability in reconstituted sweat, C. striatum; assay type: cell-based; design: key to Odor (Sniff) 6 h / Odor (Sniff) 24 h: 1. Absent (comparable to 0.1% chlorhexidine positive control); 2. Moderate; 3. Intense (bacteria-specific olfactory signature); details: 0.1% (BCP or chlorhexidine digluconate)
# Procedure: (§5) Staphylococcus epidermidis (ATCC 12228) and Corynebacterium striatum (ATCC 6940) strains were used. Each of these strains has a typical olfactory signature, the result of the metabolism of sweat components: • S. epidermidis: Valeric and propionic acid; • C. striatum: Sulphanyl alcohols. Each bacterial strain was inoculated into a reconstituted sweat solution in the presence of the BCP extract at 0.1%; 0.6% or 2% or 0.1% chlorhexidine digluconate (positive control). After 6 h and 24 h of incubation: The bacterial viability was evaluated by bacterial count expressed in CFU/ml. A sniff test was carried out to determine the olfactory signature qualitatively and semi-quantitatively (intensity of the smell) immediately after opening the vial, the smell was evaluated and scored by a trained operator: • 1. […] Moderate • 3. Intense (bacteria-specific olfactory signature)
# [7] = tested on: Staphylococcus epidermidis (ATCC 12228); assay: In vitro sniff test and viability in reconstituted sweat, S. epidermidis; assay type: cell-based; design: key to Odor (Sniff) 6 h / Odor (Sniff) 24 h: 1. Absent (comparable to 0.1% chlorhexidine positive control); 2. Moderate; 3. Intense (bacteria-specific olfactory signature); details: 0.1% (BCP or chlorhexidine digluconate)
# Procedure: as §5
# [8] = Dexamethasone 0.1 μM 24 hours, then PMA 10 μg/ml 16 hours
# [9] = Dexamethasone 0.1 μM, vs PMA 10 μg/ml
molecule,measurement,setting,value
IL1β: IL1β at 100 ng/ml (positive reference),hBD2 intracellular protein,"hBD2 [1]; 24 or 48 hours, control 141.5 ± 15.2",2162.7 ± 51.1 pg/mL
same,hBD2 protein Evolution,hBD2 [1]; vs Control,+1428% ***
same,hBD2 RQ,"hBD2 [2]; 24 or 48 hours, control 1.12",3480.89
same,hBD2 Evolution,hBD2 [2]; vs Control,×3000 ***
same,hBD3 RQ,"hBD3; 24 or 48 hours, control 1.09",9.04
same,hBD3 Evolution,hBD3; vs Control,+730% ***
same,TLR2 RQ,"TLR2 [3]; 24 or 48 hours, control 1.08",3.26
same,TLR2 Evolution,TLR2 [3]; vs Control,+201% ***
same,TLR2 protein,"TLR2 [4]; 24 or 48 hours, control 735.9 ± 39.2",913.7 ± 30.5 pg/mL
same,TLR2 protein Evolution,TLR2 [4]; vs Control,+24% **
C[C@@H]1C[C@H]2[C@@H]3CCC4=CC(=O)C=C[C@]4(C)[C@@]3(F)[C@@H](O)C[C@]2(C)[C@@]1(O)C(=O)CO [Dexamethasone],IL1α Average,IL1α (interleukin 1α); [8],230.583 pg/mL
same,IL1α Evolution,IL1α (interleukin 1α); [9],−38%
same,IL1β Average,IL1β (Interleukin 1β); [8],34.410 pg/mL
same,IL1β Evolution,IL1β (Interleukin 1β); [9],−32%
same,TNFα Average,[5]; [8],16.216 pg/mL
same,TNFα Evolution,[5]; [9],−52%
same,IL6 Average,IL6 (Interleukin 6); [8],2.090 pg/mL
same,IL6 Evolution,IL6 (Interleukin 6); [9],−70%
same,PGE2 Average,PGE2 (Prostaglandin-E2); [8],39.000 pg/mL
same,PGE2 Evolution,PGE2 (Prostaglandin-E2); [9],−94%
same,IL8 Average,IL8 (Interleukin 8); [8],4076.675 pg/mL
same,IL8 Evolution,IL8 (Interleukin 8); [9],−59
"[H]/N=C(\N/C(=N/[H])NCCCCCCNC(=N)NC(=N)Nc1ccc(Cl)cc1)Nc1ccc(Cl)cc1 [Chlorhexidine, chlorhexidine digluconate]",Viability 6 h,[6]; control 8.51 ± 0.08,0.00 ± 0.00 Log10 CFU/ml
same,Viability 24 h,[6]; control 8.64 ± 0.19,0.00 ± 0.00 Log10 CFU/ml
same,Odor (Sniff) 6 h,[6]; control Moderate,Absent
same,Odor (Sniff) 24 h,[6]; control Moderate,Intense
same,Viability 24 h,[7]; control 8.69 ± 0.09,0.00 ± 0.00 Log10 CFU/ml
same,Viability 6 h,[7]; control 8.91 ± 0.21,0.00 ± 0.00 Log10 CFU/ml
same,Odor (Sniff) 6 h,[7]; control Intense,Absent
same,Odor (Sniff) 24 h,[7]; control Intense,Absent
